According to paper PMC11855355, “In-Situ Purification of Non-Ribosomal Peptide Synthetases Assembly Line for Structural and Biochemical Studies” (International Journal of Molecular Sciences, 2025):

Biological target: T1, PvdL (Pseudomonas putida, UniProt Q88F56)
T1 construct: monomer
Assay: LC/HRMS of product N-myristoyl-L-glutamic acid after base hydrolysis
Format: biochemical
Details: 1 uM PvdL, 200 uM myristic acid, 1 mM L-Glu, 5 mM ATP, 10 mM MgCl2, pH 7.6, 25 °C; first two modules; product covalent on PvdL

T1 sequence (Q88F56 1-4317): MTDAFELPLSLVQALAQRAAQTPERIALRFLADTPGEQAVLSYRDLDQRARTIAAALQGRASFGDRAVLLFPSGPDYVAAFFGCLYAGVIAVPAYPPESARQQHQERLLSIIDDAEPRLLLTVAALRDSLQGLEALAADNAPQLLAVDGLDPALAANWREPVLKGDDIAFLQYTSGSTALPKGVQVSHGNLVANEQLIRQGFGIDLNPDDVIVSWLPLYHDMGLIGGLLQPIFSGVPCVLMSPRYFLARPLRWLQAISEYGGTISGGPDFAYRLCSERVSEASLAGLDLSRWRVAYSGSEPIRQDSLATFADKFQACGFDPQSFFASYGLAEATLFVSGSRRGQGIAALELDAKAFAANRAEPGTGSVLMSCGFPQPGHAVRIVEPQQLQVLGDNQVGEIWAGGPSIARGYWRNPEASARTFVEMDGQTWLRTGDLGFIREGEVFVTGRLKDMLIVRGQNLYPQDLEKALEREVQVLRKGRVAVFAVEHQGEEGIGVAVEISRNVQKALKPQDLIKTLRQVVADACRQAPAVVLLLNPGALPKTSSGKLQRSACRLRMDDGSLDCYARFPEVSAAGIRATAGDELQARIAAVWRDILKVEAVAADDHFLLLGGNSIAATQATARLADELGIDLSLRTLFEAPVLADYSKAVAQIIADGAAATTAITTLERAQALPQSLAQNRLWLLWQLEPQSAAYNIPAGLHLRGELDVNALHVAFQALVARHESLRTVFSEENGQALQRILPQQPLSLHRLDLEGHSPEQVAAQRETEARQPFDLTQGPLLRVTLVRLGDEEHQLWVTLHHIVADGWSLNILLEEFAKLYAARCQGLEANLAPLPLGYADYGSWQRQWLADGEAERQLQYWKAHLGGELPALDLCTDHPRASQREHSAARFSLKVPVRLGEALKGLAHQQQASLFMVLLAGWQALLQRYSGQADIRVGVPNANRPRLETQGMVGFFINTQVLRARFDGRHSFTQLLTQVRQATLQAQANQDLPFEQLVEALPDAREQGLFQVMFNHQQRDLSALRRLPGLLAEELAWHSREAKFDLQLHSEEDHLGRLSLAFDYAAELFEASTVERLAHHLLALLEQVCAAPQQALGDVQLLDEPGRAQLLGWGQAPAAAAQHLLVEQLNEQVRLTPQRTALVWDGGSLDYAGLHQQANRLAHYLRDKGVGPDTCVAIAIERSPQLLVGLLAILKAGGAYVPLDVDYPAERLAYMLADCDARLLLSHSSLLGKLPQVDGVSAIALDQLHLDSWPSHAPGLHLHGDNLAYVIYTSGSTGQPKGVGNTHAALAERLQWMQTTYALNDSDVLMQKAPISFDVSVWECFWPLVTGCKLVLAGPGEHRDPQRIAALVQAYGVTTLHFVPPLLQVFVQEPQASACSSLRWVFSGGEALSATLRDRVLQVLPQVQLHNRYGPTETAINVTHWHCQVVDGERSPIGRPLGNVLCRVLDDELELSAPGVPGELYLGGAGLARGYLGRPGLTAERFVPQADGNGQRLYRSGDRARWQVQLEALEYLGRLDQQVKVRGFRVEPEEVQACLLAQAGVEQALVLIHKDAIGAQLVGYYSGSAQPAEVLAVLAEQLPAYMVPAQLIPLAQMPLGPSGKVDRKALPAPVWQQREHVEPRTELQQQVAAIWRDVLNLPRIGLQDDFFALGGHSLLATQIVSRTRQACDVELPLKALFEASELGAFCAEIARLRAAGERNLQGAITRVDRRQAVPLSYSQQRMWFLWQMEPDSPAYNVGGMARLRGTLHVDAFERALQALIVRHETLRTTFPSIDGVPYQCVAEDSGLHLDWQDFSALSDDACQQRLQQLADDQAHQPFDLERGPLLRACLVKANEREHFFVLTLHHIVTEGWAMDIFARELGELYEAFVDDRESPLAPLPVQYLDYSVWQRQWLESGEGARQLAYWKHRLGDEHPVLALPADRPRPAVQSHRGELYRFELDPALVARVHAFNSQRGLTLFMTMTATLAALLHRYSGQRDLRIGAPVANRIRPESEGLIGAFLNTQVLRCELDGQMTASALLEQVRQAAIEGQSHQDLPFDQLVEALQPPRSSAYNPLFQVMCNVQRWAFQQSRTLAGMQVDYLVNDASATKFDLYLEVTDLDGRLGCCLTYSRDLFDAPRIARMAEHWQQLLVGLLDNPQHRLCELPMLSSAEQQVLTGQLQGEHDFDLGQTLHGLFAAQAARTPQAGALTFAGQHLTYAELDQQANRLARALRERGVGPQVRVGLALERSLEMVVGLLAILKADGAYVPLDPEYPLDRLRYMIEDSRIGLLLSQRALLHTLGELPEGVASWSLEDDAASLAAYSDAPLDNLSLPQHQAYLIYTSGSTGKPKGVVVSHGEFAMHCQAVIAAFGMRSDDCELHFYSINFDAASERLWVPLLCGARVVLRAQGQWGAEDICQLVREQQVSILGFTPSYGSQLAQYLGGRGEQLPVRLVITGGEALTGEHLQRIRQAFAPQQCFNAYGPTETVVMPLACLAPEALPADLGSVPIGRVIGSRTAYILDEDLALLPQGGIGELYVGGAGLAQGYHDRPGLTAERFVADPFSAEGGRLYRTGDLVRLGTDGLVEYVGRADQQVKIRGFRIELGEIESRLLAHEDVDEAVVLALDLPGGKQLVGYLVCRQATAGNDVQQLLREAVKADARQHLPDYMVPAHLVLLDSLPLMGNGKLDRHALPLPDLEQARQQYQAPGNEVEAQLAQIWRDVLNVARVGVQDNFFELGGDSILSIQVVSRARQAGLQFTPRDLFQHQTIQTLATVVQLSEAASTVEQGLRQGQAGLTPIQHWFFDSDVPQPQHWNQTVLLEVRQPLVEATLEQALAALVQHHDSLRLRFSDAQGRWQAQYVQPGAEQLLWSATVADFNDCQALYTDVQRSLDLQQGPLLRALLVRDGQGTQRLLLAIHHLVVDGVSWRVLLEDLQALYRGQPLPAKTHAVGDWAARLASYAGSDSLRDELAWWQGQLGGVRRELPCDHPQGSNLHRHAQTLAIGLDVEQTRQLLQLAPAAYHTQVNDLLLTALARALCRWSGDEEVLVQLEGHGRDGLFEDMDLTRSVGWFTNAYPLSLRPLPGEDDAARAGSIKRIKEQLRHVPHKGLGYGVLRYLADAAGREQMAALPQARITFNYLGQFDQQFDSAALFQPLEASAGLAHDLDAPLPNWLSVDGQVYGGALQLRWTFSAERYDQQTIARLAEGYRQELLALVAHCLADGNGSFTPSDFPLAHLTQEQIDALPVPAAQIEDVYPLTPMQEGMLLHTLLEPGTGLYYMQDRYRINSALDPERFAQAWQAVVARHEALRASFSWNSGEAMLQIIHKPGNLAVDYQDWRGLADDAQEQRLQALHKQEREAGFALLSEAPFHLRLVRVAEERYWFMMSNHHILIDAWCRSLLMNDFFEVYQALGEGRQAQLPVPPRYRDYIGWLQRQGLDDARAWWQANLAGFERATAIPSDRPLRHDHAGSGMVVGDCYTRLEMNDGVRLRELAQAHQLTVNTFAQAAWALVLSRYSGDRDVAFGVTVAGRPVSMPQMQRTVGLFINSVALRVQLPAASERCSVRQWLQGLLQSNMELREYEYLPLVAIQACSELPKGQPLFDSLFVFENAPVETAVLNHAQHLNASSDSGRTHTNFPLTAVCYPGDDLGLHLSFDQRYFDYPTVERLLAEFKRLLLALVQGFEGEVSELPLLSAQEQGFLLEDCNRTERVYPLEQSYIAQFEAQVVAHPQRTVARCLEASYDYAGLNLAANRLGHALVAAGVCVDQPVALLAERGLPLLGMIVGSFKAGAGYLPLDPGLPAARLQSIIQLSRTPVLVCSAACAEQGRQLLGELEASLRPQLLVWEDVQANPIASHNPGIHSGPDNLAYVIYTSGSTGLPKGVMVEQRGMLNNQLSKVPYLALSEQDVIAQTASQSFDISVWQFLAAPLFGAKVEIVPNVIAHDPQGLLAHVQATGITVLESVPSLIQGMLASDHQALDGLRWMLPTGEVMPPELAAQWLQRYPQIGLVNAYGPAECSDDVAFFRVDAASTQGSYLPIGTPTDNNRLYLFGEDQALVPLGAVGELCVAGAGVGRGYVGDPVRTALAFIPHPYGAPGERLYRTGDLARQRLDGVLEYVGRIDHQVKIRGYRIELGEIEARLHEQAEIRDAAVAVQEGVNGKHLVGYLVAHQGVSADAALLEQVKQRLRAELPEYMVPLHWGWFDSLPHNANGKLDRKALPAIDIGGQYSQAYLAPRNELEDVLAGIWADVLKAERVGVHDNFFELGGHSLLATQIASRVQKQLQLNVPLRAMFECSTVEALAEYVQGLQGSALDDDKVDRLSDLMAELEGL

Which “LC/HRMS of product N-myristoyl-L-glutamic acid after base hydrolysis” value does the source give for `N[C@@H](CCC(=O)O)C(=O)O` [L-Glu] here?
Its value is “ATP-energy-dependent activation and condensation of myristic acid and glutamic acid”.
